Measurements reported in patent publication US20100298141A1, “SUBSTITUTED PYRIDINE N-OXIDE HERBICIDES” (E. I. DU PONT DE NEMOURS AND COMPANY, priority 2007, published 2010).

Tests used:
Assay in all cases: Test F preemergence test
pitted morningglory = format: in vivo, Ipomoea lacunosa; details: scale 0 to 100
How it was run: (§1)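 Greenhouse screen: test chemical in surfactant-containing non-phytotoxic solvent applied preemergence to sown seeds or postemergence to sugarcane plants; after 14 to 21 days each species scored visually versus controls.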

Italian ryegrass = format: in vivo, Lolium multiflorum; details: scale 0 to 100
How it was run: as §1

dallisgrass = format: in vivo, Paspalum dilatatum; details: scale 0 to 100
How it was run: as §1

common groundsel = format: in vivo, Senecio vulgaris; details: scale 0 to 100
How it was run: as §1

goosegrass = format: in vivo, Eleusine indica; details: scale 0 to 100
How it was run: as §1

bermudagrass = format: in vivo, Cynodon dactylon; details: scale 0 to 100
How it was run: as §1

Virginia dayflower = format: in vivo, Commelina virginica; details: scale 0 to 100
How it was run: as §1

quackgrass = format: in vivo, Elytrigia repens; details: scale 0 to 100
How it was run: as §1

guineagrass = format: in vivo, Panicum maximum; details: scale 0 to 100
How it was run: as §1

broadleaf signalgrass = format: in vivo, Brachiaria platyphylla; details: scale 0 to 100
How it was run: as §1

large crabgrass = format: in vivo, Digitaria sanguinalis; details: scale 0 to 100
How it was run: as §1

mustard = format: in vivo, Brassica nigra; details: scale 0 to 100
How it was run: as §1

kochia = format: in vivo, Kochia scoparia; details: scale 0 to 100
How it was run: as §1

barnyardgrass = format: in vivo, Echinochloa crus-galli; details: scale 0 to 100
How it was run: as §1

common purslane = format: in vivo, Portulaca oleracea; details: scale 0 to 100
How it was run: as §1

prickly sida = format: in vivo, Sida spinosa; details: scale 0 to 100
How it was run: as §1

Surinam grass = format: in vivo, Brachiaria decumbens; details: scale 0 to 100
How it was run: as §1

itchgrass = format: in vivo, Rottboellia cochinchinensis; details: scale 0 to 100
How it was run: as §1

johnsongrass = format: in vivo, Sorghum halepense; details: Preemergence, scale 0 to 100
How it was run: as §1

naked crabgrass = format: in vivo, Digitaria nuda; details: scale 0 to 100
How it was run: as §1

Cc1cc[n+]([O-])c(S(=O)(=O)Cc2c(C(F)(F)F)nn(C)c2OC(F)F)c1 [Compound 2]
Plant response rating, Morningglory (pitted morningglory; 8 g ai/ha, preemergence): 0 | Morningglory plant response rating (pitted morningglory; 62 g ai/ha, Preemergence): 60 | Plant response rating, Morningglory (pitted morningglory; Preemergence, 16 g ai/ha): 0 | Plant response rating, Morningglory (pitted morningglory; Preemergence, 31 g ai/ha): 15 | Plant response rating, Ryegrass, Italian (Italian ryegrass; 8 g ai/ha, preemergence): 0 | Ryegrass, Italian plant response rating (Italian ryegrass; 62 g ai/ha, Preemergence): 35 | Plant response rating, Ryegrass, Italian (Italian ryegrass; Preemergence, 16 g ai/ha): 0 | Plant response rating, Ryegrass, Italian (Italian ryegrass; Preemergence, 31 g ai/ha): 20 | Plant response rating, Dallisgrass (dallisgrass; 8 g ai/ha, preemergence): 0 | Dallisgrass plant response rating (dallisgrass; 62 g ai/ha, Preemergence): 65 | Plant response rating, Dallisgrass (dallisgrass; Preemergence, 16 g ai/ha): 0 | Plant response rating, Dallisgrass (dallisgrass; Preemergence, 31 g ai/ha): 10 | Plant response rating, Groundsel (common groundsel; 8 g ai/ha, preemergence): 0 | Groundsel plant response rating (common groundsel; 62 g ai/ha, Preemergence): 50 | Plant response rating, Groundsel (common groundsel; Preemergence, 16 g ai/ha): 0 | Plant response rating, Groundsel (common groundsel; Preemergence, 31 g ai/ha): 50 | Plant response rating, Goosegrass (goosegrass; 8 g ai/ha, preemergence): 35 | Goosegrass plant response rating (goosegrass; 62 g ai/ha, Preemergence): 98 | Plant response rating, Goosegrass (goosegrass; Preemergence, 16 g ai/ha): 70 | Plant response rating, Goosegrass (goosegrass; Preemergence, 31 g ai/ha): 90 | Plant response rating, Bermudagrass (bermudagrass; 8 g ai/ha, preemergence): 0 | Bermudagrass plant response rating (bermudagrass; 62 g ai/ha, Preemergence): 90 | Plant response rating, Bermudagrass (bermudagrass; Preemergence, 16 g ai/ha): 25 | Plant response rating, Bermudagrass (bermudagrass; Preemergence, 31 g ai/ha): 90 | Plant response rating, Dayflower (Virginia dayflower; 8 g ai/ha, preemergence): 0 | Dayflower plant response rating (Virginia dayflower; 62 g ai/ha, Preemergence): 100 | Plant response rating, Dayflower (Virginia dayflower; Preemergence, 16 g ai/ha): 0 | Plant response rating, Dayflower (Virginia dayflower; Preemergence, 31 g ai/ha): 100 | Plant response rating, Quackgrass (quackgrass; 8 g ai/ha, preemergence): 0 | Quackgrass plant response rating (quackgrass; 62 g ai/ha, Preemergence): 60 | Plant response rating, Quackgrass (quackgrass; Preemergence, 16 g ai/ha): 0 | Plant response rating, Quackgrass (quackgrass; Preemergence, 31 g ai/ha): 20 | Plant response rating, Guineagrass (guineagrass; 8 g ai/ha, preemergence): 0 | Guineagrass plant response rating (guineagrass; 62 g ai/ha, Preemergence): 100 | Plant response rating, Guineagrass (guineagrass; Preemergence, 16 g ai/ha): 65 | Plant response rating, Guineagrass (guineagrass; Preemergence, 31 g ai/ha): 90 | Plant response rating, Signalgrass (broadleaf signalgrass; 8 g ai/ha, preemergence): 0 | Plant response rating, Signalgrass (broadleaf signalgrass; 16 g ai/ha, preemergence): 0 | Signalgrass plant response rating (broadleaf signalgrass; 62 g ai/ha, Preemergence): 50 | Plant response rating, Signalgrass (broadleaf signalgrass; Preemergence, 31 g ai/ha): 0 | Plant response rating, Crabgrass, Large (large crabgrass; 8 g ai/ha, preemergence): 0 | Crabgrass, Large plant response rating (large crabgrass; 62 g ai/ha, Preemergence): 90 | Plant response rating, Crabgrass, Large (large crabgrass; Preemergence, 16 g ai/ha): 0 | Plant response rating, Crabgrass, Large (large crabgrass; Preemergence, 31 g ai/ha): 50 | Plant response rating, Black Mustard (mustard; 8 g ai/ha, preemergence): 0 | Black Mustard plant response rating (mustard; 62 g ai/ha, Preemergence): 80 | Plant response rating, Black Mustard (mustard; Preemergence, 16 g ai/ha): 25 | Plant response rating, Black Mustard (mustard; Preemergence, 31 g ai/ha): 80 | Plant response rating, Kochia (kochia; 8 g ai/ha, preemergence): 0 | Kochia plant response rating (kochia; 62 g ai/ha, Preemergence): 75 | Plant response rating, Kochia (kochia; Preemergence, 16 g ai/ha): 0 | Plant response rating, Kochia (kochia; Preemergence, 31 g ai/ha): 0 | Plant response rating, Barnyardgrass (barnyardgrass; 8 g ai/ha, preemergence): 0 | Barnyardgrass plant response rating (barnyardgrass; 62 g ai/ha, Preemergence): 100 | Plant response rating, Barnyardgrass (barnyardgrass; Preemergence, 16 g ai/ha): 10 | Plant response rating, Barnyardgrass (barnyardgrass; Preemergence, 31 g ai/ha): 80 | Plant response rating, Purslane (common purslane; 8 g ai/ha, preemergence): 0 | Purslane plant response rating (common purslane; 62 g ai/ha, Preemergence): 50 | Plant response rating, Purslane (common purslane; Preemergence, 16 g ai/ha): 0 | Plant response rating, Purslane (common purslane; Preemergence, 31 g ai/ha): 40 | Plant response rating, Prickly Sida (prickly sida; 8 g ai/ha, preemergence): 0 | Prickly Sida plant response rating (prickly sida; 62 g ai/ha, Preemergence): 80 | Plant response rating, Prickly Sida (prickly sida; Preemergence, 16 g ai/ha): 0 | Plant response rating, Prickly Sida (prickly sida; Preemergence, 31 g ai/ha): 40 | Plant response rating, Surinam Grass (Surinam grass; 8 g ai/ha, preemergence): 0 | Plant response rating, Surinam Grass (Surinam grass; 16 g ai/ha, preemergence): 0 | Surinam Grass plant response rating (Surinam grass; 62 g ai/ha, Preemergence): 100 | Plant response rating, Surinam Grass (Surinam grass; Preemergence, 31 g ai/ha): 60 | Plant response rating, Itchgrass (itchgrass; 8 g ai/ha, preemergence): 0 | Itchgrass plant response rating (itchgrass; 62 g ai/ha, Preemergence): 70 | Plant response rating, Itchgrass (itchgrass; Preemergence, 16 g ai/ha): 20 | Plant response rating, Itchgrass (itchgrass; Preemergence, 31 g ai/ha): 60 | Johnsongrass plant response rating (johnsongrass; 62 g ai/ha): 85 | Plant response rating, Johnsongrass (johnsongrass; 31 g ai/ha): 70 | Plant response rating, Crabgrass, Naked (naked crabgrass; 8 g ai/ha, preemergence): 0 | Crabgrass, Naked plant response rating (naked crabgrass; 62 g ai/ha, Preemergence): 80 | Plant response rating, Crabgrass, Naked (naked crabgrass; Preemergence, 16 g ai/ha): 35 | Plant response rating, Crabgrass, Naked (naked crabgrass; Preemergence, 31 g ai/ha): 65
